Earlier results as cited in US20230000960A1, “NEOANTIGEN COMPOSITIONS AND USES THEREOF” (BIONTECH US INC., priority 2019, published 2023).

System: ovarian carcinoma patients
Conditions: poly-ICLC in combination with a NYESO-1 peptide vaccine (in addition to Montanide); phase 1 study

## poly-ICLC
  patients showing induction of CD4+ and CD8+ T cell, as well as antibody responses to the peptide: > 90%
